Measurements taken from US5994334A, “Androgen synthesis inhibitors” (priority 1997, dated 1999).
Read-outs that look alike come from different tables or passages of the source.

Assays:
[1] = target: T1, human 17α-hydroxylase/C17,20-lyase (Homo sapiens, UniProt P05093); experiment: Inhibition of human testicular 17α-hydroxylase/C17,20-lyase (enzyme complex as a whole); type: biochemical; settings: NI = no inhibition
T1 construct: incubating human testicular microsomes; from tissue; host or cells: human testis, microsomes
T1 sequence (P05093 1-508): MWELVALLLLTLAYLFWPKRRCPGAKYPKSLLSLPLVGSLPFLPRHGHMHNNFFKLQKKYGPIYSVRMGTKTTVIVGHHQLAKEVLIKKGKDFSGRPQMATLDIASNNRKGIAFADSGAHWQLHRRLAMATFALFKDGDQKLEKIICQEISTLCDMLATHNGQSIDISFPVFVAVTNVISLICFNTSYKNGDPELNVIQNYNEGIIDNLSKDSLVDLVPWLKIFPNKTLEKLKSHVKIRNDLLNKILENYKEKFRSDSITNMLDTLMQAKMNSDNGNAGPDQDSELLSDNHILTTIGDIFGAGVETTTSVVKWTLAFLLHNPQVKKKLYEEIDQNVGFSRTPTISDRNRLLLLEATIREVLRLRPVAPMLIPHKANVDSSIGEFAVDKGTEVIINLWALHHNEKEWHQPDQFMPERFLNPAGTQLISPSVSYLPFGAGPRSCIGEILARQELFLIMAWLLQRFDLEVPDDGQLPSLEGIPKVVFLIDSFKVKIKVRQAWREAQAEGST
Description: (§1) The conversion of radiolabeled pregnenolone to 17α-hydroxypregnenolone and DHEA by 17α-hydroxylase/C17,20 -lyase was measured by incubating human testicular microsomes with different concentration of test compounds. Reverse phase HPLC was used to separate and accurately quantify the amount of substrate and metabolites. The 17α-hydroxylase and C17,20 -lyase activities were calculated separately. The activity of 17α-hydroxylase was calculated from the conversion of pregnenolone to 17α-hydroxypregnenolone and DHEA and the activity of C17,20 -lyase was based on the conversion of pregnenolone to DHEA. Although 17α-hydroxypregnenolone is the substrate converted to DHEA by C17,20 -lyase, it has been reported that this 17α-hydroxy intermediate is not released from the enzyme binding site during conversion (Nakajin et al., 1981a,b). Also, there are species differences in substrate requirements. Pregnenolone is the natural substrate rather than progesterone for human testicular 17α-hydroxylase and C17,20 -lyase. Therefore, pregnenolone was used as substrate for measuring the activity of this enzyme complex.

[2] = target: T2, Human Testicular 17α-Hydroxylase (Homo sapiens, UniProt P05093); experiment: Inhibition of human testicular 17α-hydroxylase (pregnenolone substrate, testicular microsomes); type: biochemical; settings: for inhibition at 0.1 µM: read-out: % Inhibition 17α-hydroxylase, [I] = 100 nM; for inhibition at 0.4 µM: read-out: % Inhibition 17α-hydroxylase, [I] = 400 nM
T2 construct: incubating human testicular microsomes; from tissue; host or cells: human testis, microsomes
T2 sequence (P05093 1-508): T1 sequence (P05093 1-508)
Description: as §1

[3] = target: T3, Human Testicular C17,20-lyase (Homo sapiens, UniProt P05093); experiment: Inhibition of human testicular C17,20-lyase (pregnenolone substrate, testicular microsomes); type: biochemical; settings: for inhibition at 0.1 µM: read-out: % Inhibition C17,20-lyase, [I] = 100 nM; for inhibition at 0.4 µM: read-out: % Inhibition C17,20-lyase, [I] = 400 nM
T3 construct: incubating human testicular microsomes; from tissue; host or cells: human testis, microsomes
T3 sequence (P05093 1-508): T1 sequence (P05093 1-508)
Description: as §1

[4] = target: T4, Human Prostatic 5α-Reductase (Homo sapiens, UniProt P31213); experiment: Inhibition of human prostatic 5α-reductase (prostatic microsomes, [3H]testosterone); settings: for inhibition at 0.01 µM: read-out: % Inhibition of 5α-reductase, [I] 10 nM; for inhibition at 0.1 µM: read-out: % Inhibition of 5α-reductase, [I] 100 nM; for inhibition at 0.4 µM: read-out: % Inhibition of 5α-reductase, [I] 400 nM
T4 sequence (P31213 1-254): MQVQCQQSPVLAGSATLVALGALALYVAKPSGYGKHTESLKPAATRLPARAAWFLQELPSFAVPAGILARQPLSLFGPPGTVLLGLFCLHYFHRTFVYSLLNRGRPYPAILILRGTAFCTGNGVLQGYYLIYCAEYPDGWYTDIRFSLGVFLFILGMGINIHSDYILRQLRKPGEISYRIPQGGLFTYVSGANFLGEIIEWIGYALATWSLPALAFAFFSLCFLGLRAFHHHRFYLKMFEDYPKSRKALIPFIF
Description: The 5α-reductase assay is performed by incubating human prostatic microsomes (approx. 0.6 mg protein in 0.5 ml phosphate buffer) with [7-^3 H]testosterone (10 mM. 6×10^5 dpm) with a NADPH generating system (NADP 0.65 mM; glucose-6-phosphate 7.1 mM; glucose-6-phosphate dehydrogenase 2.5 IU in 100 μl phosphate buffer) and candidate inhibitors at concentrations of 10 nM and 100 nM under oxygen for 30 min at 37° C. […] The steroids are extracted with ether and separated by chromatography on TLC (chloroform:ether 80:20). […] The steroids are scraped from the plate and radioactivity measured.

[5] = Table 1, NI = no inhibition, read-out: IC50 17α-OHase
[6] = Table 1, NI = no inhibition, CI = complete inhibition, read-out: IC50 C17,20 lyase
[7] = first figure of pair, read-out: IC50 17α-hydroxylase
[8] = second figure of pair, read-out: IC50 C17,20-lyase

CC(=NO)[C@H]1CC[C@H]2[C@@H]3CC=C4C[C@@H](O)CC[C@]4(C)[C@H]3CC[C@]12C [Compound I-1]
inhibition of 17α-hydroxylase/C17,20-lyase (in words) [1]: potent inhibition

C[C@@H](N)[C@H]1CC[C@H]2[C@@H]3CC=C4C[C@@H](O)CC[C@]4(C)[C@H]3CC[C@]12C [Compound I-9]
IC50 [2, 5]: 89.8 µM
IC50 [3, 6]: 43.9 µM
inhibition of 17α-hydroxylase/C17,20-lyase (in words) [1]: poor inhibition

CC(=NN)[C@H]1CC[C@H]2[C@@H]3CC=C4C[C@@H](O)CC[C@]4(C)[C@H]3CC[C@]12C [Compound I-12]
inhibition of 17α-hydroxylase/C17,20-lyase (in words) [1]: poor inhibition

CC(=NN(C)C)C1=CC[C@H]2[C@@H]3CC=C4C[C@@H](O)CC[C@]4(C)[C@H]3CC[C@]12C [Compound I-14]
inhibition of 17α-hydroxylase/C17,20-lyase (in words) [1]: devoid of inhibitory activity

C[C@H](C=NN(C)C)[C@H]1CC[C@H]2[C@@H]3CCC4=CC(=O)CC[C@]4(C)[C@H]3CC[C@]12C [Compound I-15]
inhibition of 17α-hydroxylase/C17,20-lyase (in words) [1]: devoid of inhibitory activity
inhibition at 0.01 µM [4]: 16.4%
inhibition at 0.1 µM [4]: 74.9%

CC(=O)[C@@]12O[C@@H]1C[C@H]1[C@@H]3CCC4=CC(=O)CC[C@]4(C)[C@H]3CC[C@@]12C [Compound I-18]
IC50 [2, 5]: 0.48 µM
IC50 [3, 6]: 0.8 µM
inhibition at 0.01 µM [4]: 15.1%
inhibition at 0.1 µM [4]: 76.2%

C[C@H](O)[C@H]1CC[C@H]2[C@@H]3CC=C4C[C@@H](O)CC[C@]4(C)[C@H]3CC[C@]12C [Compound I-19]
IC50 ([2]; IC50 17α-OHase): 0.72 µM
IC50 ([3]; IC50 C17,20 lyase): 0.51 µM
inhibition of 5α-reductase (in words) ([4]; NI = no inhibition): neither showed activity against 5α-reductase

CC(C#N)=C1CC[C@H]2[C@@H]3CCC4=CC(=O)CC[C@]4(C)[C@H]3CC[C@]12C [Compound I-26]
inhibition of 17α-hydroxylase/C17,20-lyase (in words) [1]: did not contribute to inhibition
inhibition at 0.01 µM [4]: 5.21%
inhibition at 0.1 µM [4]: 71.8%

C[C@H](C=O)[C@H]1CC[C@H]2[C@@H]3CC=C4C[C@@H](O)CC[C@]4(C)[C@H]3CC[C@]12C [Compound I-31]
IC50 [2, 5]: 0.08 µM
IC50 [3, 6]: 0.08 µM

C[C@H](C#N)[C@H]1CC[C@H]2[C@@H]3CCC4=CC(=O)CC[C@]4(C)[C@H]3CC[C@]12C [Compound I-32]
inhibition at 0.01 µM [4]: 21%
inhibition at 0.1 µM [4]: 79.2%

CN(C=O)[C@H]1CC[C@H]2[C@@H]3CC=C4C[C@@H](O)CC[C@]4(C)[C@H]3CC[C@]12C [Compound I-39]
IC50 [2, 5]: 0.29 µM
IC50 [3, 6]: 0.28 µM

C[C@]12CCC(=O)C=C1CC[C@@H]1[C@@H]2CC[C@@]2(C)[C@H]1CC[C@]2(O)c1c[nH]cn1 [Compound I-44]
IC50 [2, 5]: 1.2 µM
IC50 [2, 7]: 1.2 µM
IC50 [3, 6]: 1 µM
IC50 [3, 8]: 1 µM

C[C@]12CC[C@H](O)CC1=CC[C@@H]1[C@@H]2CC[C@@]2(C)[C@H]1C[C@H]1O[C@]12c1c[nH]cn1 [Compound I-51]
IC50 [2, 5]: 0.43 µM
IC50 [2, 7]: 0.431 µM
IC50 [3, 6]: 0.1 µM
IC50 [3, 8]: 0.098 µM

CCOC(=O)C1=CC[C@H]2[C@@H]3CC=C4C[C@@H](O)CC[C@]4(C)[C@H]3CC[C@]12C [Compound I-53]
IC50 [2, 5]: 3.04 µM
IC50 [3, 6]: 2.45 µM

CN(C)N=C1CC[C@H]2[C@@H]3CC=C4C[C@@H](O)CC[C@]4(C)[C@H]3CC[C@]12C [Compound I-56]
IC50 [2, 5]: 4.2 µM
IC50 [3, 6]: 2.4 µM

C[C@]12CC[C@H]3[C@@H](CCC4=CC(=O)CC[C@@]43C)[C@@H]1CC[C@@H]2c1ncc[nH]1 [Compound L-3]
inhibition at 0.1 µM ([2]; 100 nM, first figure of pair): 20.3%
inhibition at 0.4 µM ([2]; 400 nM, first figure of pair): 43.5%
inhibition at 0.1 µM ([3]; 100 nM, second figure of pair): 62.9%
inhibition at 0.4 µM ([3]; 400 nM, second figure of pair): 100%
inhibition at 0.1 µM [4]: 31.7%
inhibition at 0.4 µM [4]: 61.7%

C[C@]12CC[C@H]3[C@@H](CC=C4C[C@@H](O)CC[C@@]43C)[C@@H]1CC[C@@H]2c1c[nH]c(-c2ccccc2)n1 [Compound L-7]
inhibition at 0.1 µM ([2]; 100 nM, first figure of pair): 10.3%
inhibition at 0.4 µM ([2]; 400 nM, first figure of pair): 20.9%
inhibition at 0.1 µM ([3]; 100 nM, second figure of pair): 9.5%
inhibition at 0.4 µM ([3]; 400 nM, second figure of pair): 33.8%

C[C@H](O)C1=CC[C@H]2[C@@H]3CC=C4C[C@@H](O)CC[C@]4(C)[C@H]3CC[C@]12C [Compound L-9]
inhibition of 17α-hydroxylase/C17,20-lyase (in words) [1]: less active
inhibition at 0.01 µM [4]: 33.2%

C=C1CC2C3CCC(OC(C)=O)C3(C)CCC2C2(C)CCC(=O)CC12 [Compound L-14, 17β-Acetoxy-6-methylene-5α-androst-3-one]
inhibition at 0.1 µM [4]: 5.77%
inhibition at 0.4 µM [4]: 11.4%

C[C@]12CC[C@H]3[C@@H](CC[C@]45CC(=O)C=C[C@]34C5)[C@@H]1CCC2=O [Compound L-15, 5,19β-cycloandrost-1-ene-3,17-dione]
inhibition at 0.1 µM ([2]; 100 nM, first figure of pair): 7.25%
inhibition at 0.1 µM ([3]; 100 nM, second figure of pair): 28.8%
inhibition at 0.1 µM [4]: 23.3%
inhibition at 0.4 µM [4]: 60.9%

C[C@]12CC[C@H]3[C@@H](CC[C@]45CC(=O)CC[C@]34[C@H]5O)[C@@H]1CC[C@@H]2O [Compound L-19, 17β,19(S)-dihydroxy 5,19β-cycloandrost-3-one]
inhibition at 0.1 µM [4]: 8.7%
inhibition at 0.4 µM [4]: 14.8%

C[C@]12CC[C@H]3[C@@H](CC[C@]45CC(=O)CC[C@]34[C@@H]5O)[C@@H]1CCC2=O [Compound L-20, 19(R)-Hydroxy-5,19β-cyclo-androst-3,17-dione]
inhibition at 0.1 µM [4]: 5.89%
inhibition at 0.4 µM [4]: 12.2%

CC1N[C@@]12CC[C@H]1[C@@H]3CC=C4C[C@@H](O)CC[C@]4(C)[C@H]3CC[C@@]12C (stereo partly drawn) [Compound L-21]
inhibition at 0.1 µM [2]: 8.47%
inhibition at 0.4 µM [2]: 23.7%
inhibition at 0.1 µM [3]: 29.1%
inhibition at 0.4 µM [3]: 52%

CC1N[C@]12CC[C@H]1[C@@H]3CC=C4C[C@@H](O)CC[C@]4(C)[C@H]3CC[C@@]12C (stereo partly drawn) [Compound L-22]
inhibition at 0.1 µM [2]: 0%
inhibition at 0.4 µM [2]: 0%
inhibition at 0.1 µM [3]: 3.33%
inhibition at 0.4 µM [3]: 9.99%

CO[C@@H]1[C@]23CC[C@@H]4[C@H](CC[C@]5(C)C(=O)CC[C@@H]45)[C@]12CCC(=O)[C@H]3C [Compound L-23, 4α-methyl-19-(S)-methoxy-5,19β-cycloandrost-3,17-dione]
inhibition at 0.1 µM [4]: 0%
inhibition at 0.4 µM [4]: 16.1%

C[C@]12CC[C@H]3[C@@H](CCC4=CC(=O)CC[C@@]43CBr)[C@@H]1CCC2=O [Compound L-24, 19-Bromo-androst-4-ene-3,17-dione]
inhibition at 0.1 µM [4]: 12.3%
inhibition at 0.4 µM [4]: 52.7%
